Experimental data taken from publication PMC3319004 (Science Translational Medicine, 2011).

What was measured:
[1] = test system: R1275Q xenografts; assay: In vivo activity of GSK1838705A in xenografts
[2] = target: F1174L ALK-TKD (Homo sapiens, UniProt Q9UM73, F1174L)
[3] = test system: NBSD (F1174L) xenografts; assay: In vivo tumor growth inhibition, NBSD xenografts; design: species or system CB17 scid mice
[4] = test system: NB1643 (R1275Q) xenografts; assay: In vivo tumor growth inhibition, NB1643 xenografts; design: species or system CB17 scid mice
[5] = test system: SH-SY5Y (F1174L) xenografts
[6] = 100mg/kg/day oral gavage for 4 weeks

SMILES: CNC(=O)c1c(F)cccc1Nc1nc(Nc2cc3c(cc2OC)CCN3C(=O)CN(C)C)nc2[nH]ccc12 [GSK1838705A]
- in vivo activity in xenografts [1]: only showed significant in vivo activity against R1275Q xenografts

SMILES: CN[C@@H]1C[C@H]2O[C@@](C)([C@@H]1OC)n1c3ccccc3c3c4c(c5c6ccccc6n2c5c31)C(=O)NC4 [staurosporine]
- in vitro inhibition of ALK-TKD, F1174L compared with R1275Q-mutated ALK-TKD [2]: impaired by the F1174L mutation

SMILES: C[C@@H](Oc1cc(-c2cnn(C3CCNCC3)c2)cnc1N)c1c(Cl)ccc(F)c1Cl [crizotinib]
- tumor volume ([3]; 100mg/kg/day oral gavage for 4 weeks, p = 0.29): failed to reduce tumor volume
- extension of time to reach the study endpoint ([3]; 100mg/kg/day, mean, p = 0.04): 3.7 days
- tumor response [4, 6]: tumor regression within three weeks
- tumor response over the fourth week of dosing ([4]; 100mg/kg/day oral gavage, p < 0.0001): complete regression was sustained
- tumor regression [5, 6]: No tumor regression was observed
- extension of time taken to reach the study endpoint (tumor volume ≥ 1.5 cm^3) ([5]; 100mg/kg/day, average, p < 0.0001): 7.7 days
